This assay relates to recombinant NL4-3 virus (Renilla luciferase in nef, Gag P373S). The experiment in a line: HIV cell culture assay (luciferase activity in MT-2 cells infected with NLRluc recombinant virus). Format: cell-based. To be noted: NL43, MT-2 cells infected 4-5 days with NLRluc recombinant virus, class symbol. The procedure, abridged:
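Activity was read as luciferase output (Dual Luciferase reagents premixed with lysis solution) after 4–5 days of infection in serially diluted inhibitor. Host cells were MT-2 in 10% FBS RPMI. The reporter virus came from transfected 293T cells and was titered on MT-2.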

For orientation: EC50 means the concentration needed to bring the measured effect to its halfway point. `C=C(C)[C@@H]1CC[C@]2(CNC(=O)CN3CCCC3=O)CC[C@]3(C)[C@H](CC[C@@H]4[C@@]5(C)CC=C(c6ccc(C(=O)O)cc6)C(C)(C)[C@@H]5CC[C@]43C)[C@@H]12` [Example 133, 4-((1R,3aS,5aR,5bR,7aR,11aS,11bR,13aR,13bR)-5a, 5b,8,8,11a-pentamethyl-3a-((2-(2-oxopyrrolidin-1-yl)acetamido)methyl)-1-(prop-1-en-2-yl)-2,3,3a,4,5,5a,5b,6,7,7a,8,11,11a,11b,12,13,13a,13b-octadecahydro-1H-cyclopenta[a]chrysen-9-yl)benzoic acid]: the half-maximal effective concentration (EC50) was below 100 nM.

As for `C=C(C)[C@@H]1CC[C@]2(CNC(=O)C3CC(=O)NC(=O)C3)CC[C@]3(C)[C@H](CC[C@@H]4[C@@]5(C)CC=C(c6ccc(C(=O)O)cc6)C(C)(C)[C@@H]5CC[C@]43C)[C@@H]12` [Example 134, 4-((1R,3aS,5aR,5bR,7aR,11aS,11bR,13aR,13bR)-3a-((2,6-dioxopiperidine-4-carboxamido)methyl)-5a,5b,8,8,11a-pentamethyl-1-(prop-1-en-2-yl)-2,3,3a,4,5,5a,5b,6,7,7a,8,11,11a,11b,12,13,13a,13b-octadecahydro-1H-cyclopenta[a]chrysen-9-yl)benzoic acid], the EC50 was below 100 nM.

Regarding `C=C(C)[C@@H]1CC[C@]2(CNC(=O)[C@H](N)CCS(C)(=O)=O)CC[C@]3(C)[C@H](CC[C@@H]4[C@@]5(C)CC=C(c6ccc(C(=O)O)cc6)C(C)(C)[C@@H]5CC[C@]43C)[C@@H]12` [Example 135, 4-((1R,3aS,5aR,5bR,7aR,11aS,11bR,13aR,13bR)-3a-(((R)-2-amino-4-(methylsulfonyl)butanamido)methyl)-5a,5b,8,8,11a-pentamethyl-1-(prop-1-en-2-yl)-2,3,3a,4,5,5a,5b,6,7,7a,8,11,11a,11b,12,13,13a,13b-octadecahydro-1H-cyclopenta[a]chrysen-9-yl)benzoic acid], the EC50 was below 100 nM.

In the case of `C=C(C)[C@@H]1CC[C@]2(CNC(=O)[C@@H]3CCCN3)CC[C@]3(C)[C@H](CC[C@@H]4[C@@]5(C)CC=C(c6ccc(C(=O)O)cc6)C(C)(C)[C@@H]5CC[C@]43C)[C@@H]12` [Example 136, 4-((1R,3aS,5aR,5bR,7aR,11aS,11bR,13aR,13bR)-5a,5b,8,8,11a-pentamethyl-1-(prop-1-en-2-yl)-3a-(((S)-pyrrolidine-2-carboxamido)methyl)-2,3,3a,4,5,5a,5b,6,7,7a,8,11,11a,11b,12,13,13a,13b-octadecahydro-1H-cyclopenta[a]chrysen-9-yl)benzoic acid], the EC50 was below 100 nM.

For `C=C(C)[C@@H]1CC[C@]2(CNC(=O)[C@H]3CCCN3)CC[C@]3(C)[C@H](CC[C@@H]4[C@@]5(C)CC=C(c6ccc(C(=O)O)cc6)C(C)(C)[C@@H]5CC[C@]43C)[C@@H]12` [Example 137, 4-((1R,3aS,5aR,5bR,7aR,11aS,11bR,13aR,13bR)-5a,5b,8,8,11a-pentamethyl-1-(prop-1-en-2-yl)-3a-(((R)-pyrrolidine-2-carboxamido)methyl)-2,3,3a,4,5,5a,5b,6,7,7a,8,11,11a,11b,12,13,13a,13b-octadecahydro-1H-cyclopenta[a]chrysen-9-yl)benzoic acid], the 50% effective concentration (EC50) is below 100 nM.

As to `C=C(C)[C@@H]1CC[C@]2(CNC(=O)[C@@H]3CCCN3C(C)=O)CC[C@]3(C)[C@H](CC[C@@H]4[C@@]5(C)CC=C(c6ccc(C(=O)O)cc6)C(C)(C)[C@@H]5CC[C@]43C)[C@@H]12` [Example 138, 4-((1R,3aS,5aR,5bR,7aR,11aS,11bR,13aR,13bR)-3a-(((S)-1-acetylpyrrolidine-2-carboxamido)methyl)-5a,5b,8,8,11a-pentamethyl-1-(prop-1-en-2-yl)-2,3,3a,4,5,5a,5b,6,7,7a,8,11,11a,11b,12,13,13a,13b-octadecahydro-1H-cyclopenta[a]chrysen-9-yl)benzoic acid], the 50% effective concentration (EC50) was below 100 nM.

Consider `C=C(C)[C@@H]1CC[C@]2(CNC(=O)CNC)CC[C@]3(C)[C@H](CC[C@@H]4[C@@]5(C)CC=C(c6ccc(C(=O)O)cc6)C(C)(C)[C@@H]5CC[C@]43C)[C@@H]12` [Example 139, 4-((1R,3aS,5aR,5bR,7aR,11aS,11bR,13aR,13bR)-5a,5b,8,8,11a-pentamethyl-3a-((2-(methylamino)acetamido)methyl)-1-(prop-1-en-2-yl)-2,3,3a,4,5,5a,5b,6,7,7a,8,11,11a,11b,12,13,13a,13b-octadecahydro-1H-cyclopenta[a]chrysen-9-yl)benzoic acid], for which the EC50 is below 100 nM.

`C=C(C)[C@@H]1CC[C@]2(CNC(=O)[C@@H](N)Cc3c[nH]cn3)CC[C@]3(C)[C@H](CC[C@@H]4[C@@]5(C)CC=C(c6ccc(C(=O)O)cc6)C(C)(C)[C@@H]5CC[C@]43C)[C@@H]12` [Example 140, 4-((1R,3aS,5aR,5bR,7aR,11aS,11bR,13aR,13bR)-3a-(((S)-2-amino-3-(1H-imidazol-4-yl)propanamido)methyl)-5a,5b,8,8,11a-pentamethyl-1-(prop-1-en-2-yl)-2,3,3a,4,5,5a,5b,6,7,7a,8,11,11a,11b,12,13,13a,13b-octadecahydro-1H-cyclopenta[a]chrysen-9-yl)benzoic acid]: the half-maximal effective concentration (EC50) is below 100 nM.

With `C=C(C)[C@@H]1CC[C@]2(CNC(=O)CCN3CCNCC3)CC[C@]3(C)[C@H](CC[C@@H]4[C@@]5(C)CC=C(c6ccc(C(=O)O)cc6)C(C)(C)[C@@H]5CC[C@]43C)[C@@H]12` [Example 141, 4-((1R,3aS,5aR,5bR,7aR,11aS,11bR,13aR,13bR)-5a,5b,8,8,11a-pentamethyl-3a-((3-(piperazin-1-yl)propanamido)methyl)-1-(prop-1-en-2-yl)-2,3,3a,4,5,5a,5b,6,7,7a,8,11,11a,11b,12,13,13a,13b-octadecahydro-1H-cyclopenta[a]chrysen-9-yl)benzoic acid], the EC50 is below 100 nM.

`C=C(C)[C@@H]1CC[C@]2(CNC(=O)CCN(C)C)CC[C@]3(C)[C@H](CC[C@@H]4[C@@]5(C)CC=C(c6ccc(C(=O)O)cc6)C(C)(C)[C@@H]5CC[C@]43C)[C@@H]12` [Example 142, 4-((1R,3aS,5aR,5bR,7aR,11aS,11bR,13aR,13bR)-3a-((3-(dimethylamino)propanamido)methyl)-5a,5b,8,8,11a-pentamethyl-1-(prop-1-en-2-yl)-2,3,3a,4,5,5a,5b,6,7,7a,8,11,11a,11b,12,13,13a,13b-octadecahydro-1H-cyclopenta[a]chrysen-9-yl)benzoic acid]: the EC50 was below 100 nM.

With `C=C(C)[C@@H]1CC[C@]2(CNC(=O)c3cccc(C(=O)O)c3)CC[C@]3(C)[C@H](CC[C@@H]4[C@@]5(C)CC=C(c6ccc(C(=O)O)cc6)C(C)(C)[C@@H]5CC[C@]43C)[C@@H]12` [Example 143, 3-(((1R,3aS,5aR,5bR,7aR,11aS,11bR,13aR,13bR)-9-(4-carboxyphenyl)-5a,5b,8,8,11a-pentamethyl-1-(prop-1-en-2-yl)-2,3,3a,4,5,5a,5b,6,7,7a,8,11,11a,11b,12,13,13a,13b-octadecahydro-1H-cyclopenta[a]chrysen-3a-yl)methylcarbamoyl)benzoic acid], the EC50 is below 100 nM.

For `C=C(C)[C@@H]1CC[C@]2(CNC(=O)c3ccc(S(N)(=O)=O)cc3)CC[C@]3(C)[C@H](CC[C@@H]4[C@@]5(C)CC=C(c6ccc(C(=O)O)cc6)C(C)(C)[C@@H]5CC[C@]43C)[C@@H]12` [Example 144, 4-((1R,3aS,5aR,5bR,7aR,11aS,11bR,13aR,13bR)-5a,5b,8,8,11a-pentamethyl-1-(prop-1-en-2-yl)-3a((4-sulfamoylbenzamido)methyl)-2,3,3a,4,5,5a,5b,6,7,7a,8,11,11a,11b,12,13,13a,13b-octadecahydro-1H-cyclopenta[a]chrysen-9-yl)benzoic acid], the EC50 is below 100 nM.

On to `C=C(C)[C@@H]1CC[C@]2(CNC(=O)CN3CCS(=O)(=O)CC3)CC[C@]3(C)[C@H](CC[C@@H]4[C@@]5(C)CC=C(c6ccc(C(=O)O)cc6)C(C)(C)[C@@H]5CC[C@]43C)[C@@H]12` [Example 145, 4-((1R,3aS,5aR,5bR,7aR,11aS,11bR,13aR,13bR)-3a-((((1,1-dioxido-4-thiomorpholinyl)acetyl)amino)methyl)-1-isopropenyl-5a,5b,8,8,11a-pentamethyl-2,3,3a,4,5,5a,5b,6,7,7a,8,11,11a,11b,12,13,13a,13b-octadecahydro-1H-cyclopenta[a]chrysen-9-yl)benzoic acid], for which the EC50 is below 100 nM.

Regarding `C=C(C)[C@@H]1CC[C@]2(CNC(=O)CCN3CCS(=O)(=O)CC3)CC[C@]3(C)[C@H](CC[C@@H]4[C@@]5(C)CC=C(c6ccc(C(=O)O)cc6)C(C)(C)[C@@H]5CC[C@]43C)[C@@H]12` [Example 146, 4-((1R,3aS,5aR,5bR,7aR,11aS,11bR,13aR,13bR)-3a-(((3-(1,1-dioxido-4-thiomorpholinyl)propanoyl)amino)methyl)-1-isopropenyl-5a,5b,8,8,11a-pentamethyl-2,3,3a,4,5,5a,5b,6,7,7a,8,11,11a,11b,12,13,13a,13b-octadecahydro-1H-cyclopenta[a]chrysen-9-yl)benzoic acid], the EC50 was below 100 nM.

Turning to `C=C(C)[C@@H]1CC[C@]2(CNC(=O)CN3CCCCS3(=O)=O)CC[C@]3(C)[C@H](CC[C@@H]4[C@@]5(C)CC=C(c6ccc(C(=O)O)cc6)C(C)(C)[C@@H]5CC[C@]43C)[C@@H]12` [Example 147, 4-((1R,3aS,5aR,5bR,7aR,11aS,11bR,13aR,13bR)-3a-((((1,1-dioxido-1,2-thiazinan-2-yl)acetyl)amino)methyl)-1-isopropenyl-5a,5b,8,8,11a-pentamethyl-2,3,3a,4,5,5a,5b,6,7,7a,8,11,11a,11b,12,13,13a,13b-octadecahydro-1H-cyclopenta[a]chrysen-9-yl)benzoic acid], the concentration giving a half-maximal response (EC50) is below 100 nM.

The values above are taken from patent US8748415B2 (priority 2011, dated 2014).
